These results are taken from US8114408B2 (priority 2007, dated 2012).

For this assay, the system named is mice. The conditions noted are these: mouse, in vivo, sc.

In the case of 3 (RRQRRF) [compound 3], the “immune response in immunized mice (ELISA, FIG. 2)” value was “either an immune response occurred only in some individuals or a weak immune response was shown”.
